Columns and labels:
[1] = biological target: T1, UDP-glucuronosyltransferase 2B7 (Homo sapiens, UniProt P16662); assay: Drug metabolism assessed as recombinant human UGT2B7 assessed as O-glucuronidation measured as inhibition constant at 10 to 400 uM incubated for 60 mins by LC-MS/MS analysis
T1 sequence (P16662 whole entry): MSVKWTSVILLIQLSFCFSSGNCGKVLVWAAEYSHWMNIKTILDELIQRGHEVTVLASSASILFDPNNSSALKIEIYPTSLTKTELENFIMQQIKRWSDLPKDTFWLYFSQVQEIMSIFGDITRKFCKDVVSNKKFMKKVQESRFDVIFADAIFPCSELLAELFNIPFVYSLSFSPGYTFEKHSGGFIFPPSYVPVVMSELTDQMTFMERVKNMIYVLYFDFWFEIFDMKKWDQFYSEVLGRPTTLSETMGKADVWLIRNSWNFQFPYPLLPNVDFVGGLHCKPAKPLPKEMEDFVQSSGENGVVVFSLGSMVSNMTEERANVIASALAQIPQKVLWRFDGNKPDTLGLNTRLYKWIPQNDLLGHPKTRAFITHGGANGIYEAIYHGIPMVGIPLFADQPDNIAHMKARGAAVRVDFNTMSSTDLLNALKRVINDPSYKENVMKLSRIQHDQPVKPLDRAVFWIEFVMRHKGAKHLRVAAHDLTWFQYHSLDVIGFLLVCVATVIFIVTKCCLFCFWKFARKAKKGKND

[2] = biological target: T2, UDP-glucuronosyltransferase 1A3 (Homo sapiens, UniProt P35503); assay: Drug metabolism assessed as recombinant human UGT1A3 assessed as O-glucuronidation at 100 uM incubated for 60 mins by LC-MS/MS analysis; assay type: ADME; settings: recombinant enzyme, 1 h
T2 sequence (P35503 whole entry): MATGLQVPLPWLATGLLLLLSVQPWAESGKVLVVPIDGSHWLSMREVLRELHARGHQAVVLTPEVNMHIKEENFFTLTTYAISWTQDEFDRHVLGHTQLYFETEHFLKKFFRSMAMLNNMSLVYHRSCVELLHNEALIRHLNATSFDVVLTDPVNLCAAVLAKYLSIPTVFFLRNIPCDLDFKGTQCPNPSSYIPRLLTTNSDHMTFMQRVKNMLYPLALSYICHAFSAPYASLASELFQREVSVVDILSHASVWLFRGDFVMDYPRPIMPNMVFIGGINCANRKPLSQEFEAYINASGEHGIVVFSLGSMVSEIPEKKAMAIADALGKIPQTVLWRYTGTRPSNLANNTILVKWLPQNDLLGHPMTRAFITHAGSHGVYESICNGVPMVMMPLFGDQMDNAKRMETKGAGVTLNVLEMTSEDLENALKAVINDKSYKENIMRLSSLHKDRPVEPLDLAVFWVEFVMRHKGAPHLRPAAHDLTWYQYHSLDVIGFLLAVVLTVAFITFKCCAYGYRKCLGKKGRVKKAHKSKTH

[3] = biological target: T3, UDP-glucuronosyltransferase 1A8 (Homo sapiens, UniProt Q9HAW9); assay: Drug metabolism assessed as recombinant human UGT1A8 assessed as N-glucuronidation at 100 uM incubated for 60 mins by LC-MS/MS analysis; assay type: ADME; settings: recombinant enzyme, 1 h
T3 sequence (Q9HAW9 whole entry): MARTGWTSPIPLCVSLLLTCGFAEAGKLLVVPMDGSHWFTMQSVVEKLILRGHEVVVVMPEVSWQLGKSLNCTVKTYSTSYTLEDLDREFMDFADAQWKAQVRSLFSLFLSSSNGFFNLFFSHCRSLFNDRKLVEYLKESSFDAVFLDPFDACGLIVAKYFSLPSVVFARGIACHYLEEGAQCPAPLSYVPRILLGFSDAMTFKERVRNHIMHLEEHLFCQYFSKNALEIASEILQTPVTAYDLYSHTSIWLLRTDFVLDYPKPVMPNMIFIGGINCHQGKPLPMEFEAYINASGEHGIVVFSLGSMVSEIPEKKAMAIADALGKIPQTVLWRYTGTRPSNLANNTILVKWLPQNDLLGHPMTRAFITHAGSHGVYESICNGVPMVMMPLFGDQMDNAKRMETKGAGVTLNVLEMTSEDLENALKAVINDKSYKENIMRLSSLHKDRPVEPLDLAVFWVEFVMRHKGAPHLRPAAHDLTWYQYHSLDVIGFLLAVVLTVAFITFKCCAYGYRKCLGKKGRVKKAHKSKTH

[4] = biological target: T4, UDP-glucuronosyltransferase 1A10 (Homo sapiens, UniProt Q9HAW8); assay: Drug metabolism assessed as recombinant human UGT1A10 assessed as N-glucuronidation at 100 uM incubated for 60 mins by LC-MS/MS analysis; assay type: ADME; settings: recombinant enzyme, 1 h
T4 sequence (Q9HAW8 whole entry): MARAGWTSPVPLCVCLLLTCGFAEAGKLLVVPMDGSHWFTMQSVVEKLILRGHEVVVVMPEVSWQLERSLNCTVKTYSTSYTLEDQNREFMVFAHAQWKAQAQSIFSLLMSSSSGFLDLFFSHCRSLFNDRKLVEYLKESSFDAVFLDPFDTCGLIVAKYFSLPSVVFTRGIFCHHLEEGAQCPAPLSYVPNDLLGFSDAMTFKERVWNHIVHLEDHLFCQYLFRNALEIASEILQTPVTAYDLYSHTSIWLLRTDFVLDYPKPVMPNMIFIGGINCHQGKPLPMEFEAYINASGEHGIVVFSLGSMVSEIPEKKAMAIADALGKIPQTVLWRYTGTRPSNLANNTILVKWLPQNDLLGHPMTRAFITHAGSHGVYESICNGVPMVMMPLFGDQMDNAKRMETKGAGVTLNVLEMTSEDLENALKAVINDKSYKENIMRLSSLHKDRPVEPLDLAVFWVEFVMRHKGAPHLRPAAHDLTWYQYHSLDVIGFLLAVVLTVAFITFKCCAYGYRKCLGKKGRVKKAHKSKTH

[5] = biological target: T5, UDP-glucuronosyltransferase 2B15 (Homo sapiens, UniProt P54855); assay: Drug metabolism assessed as recombinant human UGT2B15 assessed as N-glucuronidation at 100 uM incubated for 60 mins by LC-MS/MS analysis; assay type: ADME; settings: recombinant enzyme, 1 h
T5 sequence (P54855 whole entry): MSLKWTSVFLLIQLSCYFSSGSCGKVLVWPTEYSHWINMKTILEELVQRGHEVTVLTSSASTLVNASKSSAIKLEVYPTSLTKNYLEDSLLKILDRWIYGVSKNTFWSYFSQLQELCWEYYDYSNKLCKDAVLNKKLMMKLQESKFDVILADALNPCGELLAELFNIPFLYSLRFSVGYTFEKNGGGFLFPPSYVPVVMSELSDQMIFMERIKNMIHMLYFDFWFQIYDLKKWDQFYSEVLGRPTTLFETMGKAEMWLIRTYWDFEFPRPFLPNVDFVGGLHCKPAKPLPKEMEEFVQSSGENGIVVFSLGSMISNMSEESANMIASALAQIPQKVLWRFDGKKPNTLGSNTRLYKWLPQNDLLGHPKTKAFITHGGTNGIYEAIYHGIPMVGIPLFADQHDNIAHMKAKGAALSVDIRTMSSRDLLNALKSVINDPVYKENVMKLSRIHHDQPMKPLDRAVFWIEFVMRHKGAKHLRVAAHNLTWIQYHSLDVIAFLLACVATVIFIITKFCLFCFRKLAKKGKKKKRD

Compound: O=C(CCCN1CCC(O)(c2ccc(Cl)cc2)CC1)c1ccc(F)cc1 [HALOPERIDOL]
- Ki [1]: 590 µM
- Drug metabolism [2]: metabolite_not_detected
- Drug metabolism [3]: metabolite_not_detected
- Drug metabolism [4]: metabolite_not_detected
- Drug metabolism [5]: metabolite_not_detected

Reference: ChEMBL document CHEMBL3526000 (Drug Metab Dispos, 2012)
